{"source": "ChEMBL document CHEMBL1141890", "about": "“DNA topoisomerase I inhibitors from Rinorea anguifera” (Bioorg Med Chem Lett, 2005)", "key": {"[1]": {"target": "T1, DNA topoisomerase 1 (Homo sapiens) (UniProt P11387)", "T1 sequence (whole entry)": "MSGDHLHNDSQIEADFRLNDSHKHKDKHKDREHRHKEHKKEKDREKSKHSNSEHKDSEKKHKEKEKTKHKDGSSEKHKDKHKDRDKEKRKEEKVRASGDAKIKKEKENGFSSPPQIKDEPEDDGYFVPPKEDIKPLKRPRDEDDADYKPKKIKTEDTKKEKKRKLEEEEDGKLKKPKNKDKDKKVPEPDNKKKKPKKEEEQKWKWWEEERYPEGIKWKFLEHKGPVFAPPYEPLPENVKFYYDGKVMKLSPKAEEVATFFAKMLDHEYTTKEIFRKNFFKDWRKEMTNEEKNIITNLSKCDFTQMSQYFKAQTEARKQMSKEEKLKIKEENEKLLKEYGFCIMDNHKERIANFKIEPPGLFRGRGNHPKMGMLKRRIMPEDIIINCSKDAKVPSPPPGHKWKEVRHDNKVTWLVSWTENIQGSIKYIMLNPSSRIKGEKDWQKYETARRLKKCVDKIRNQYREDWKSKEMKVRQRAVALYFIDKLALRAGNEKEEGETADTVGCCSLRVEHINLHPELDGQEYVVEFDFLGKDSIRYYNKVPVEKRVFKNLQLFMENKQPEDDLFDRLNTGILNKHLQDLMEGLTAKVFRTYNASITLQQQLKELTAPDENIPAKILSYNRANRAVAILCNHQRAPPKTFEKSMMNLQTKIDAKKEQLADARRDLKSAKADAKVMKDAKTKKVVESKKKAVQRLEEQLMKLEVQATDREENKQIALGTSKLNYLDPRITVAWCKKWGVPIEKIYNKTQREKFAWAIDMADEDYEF", "assay": "Effect on DNA breakge as nicked FormII at 1 uM with topoisomerase I", "format": "functional"}, "[2]": {"target": "T1, DNA topoisomerase 1 (Homo sapiens)", "assay": "Effect on DNA breakge as nicked FormII at 100 uM without topoisomerase I", "format": "functional"}, "[3]": {"target": "T1, DNA topoisomerase 1 (Homo sapiens)", "assay": "Effect on stabilization of human topoisomerase I-DNA covalent complex at 100 uM"}, "[4]": {"target": "T1, DNA topoisomerase 1 (Homo sapiens)", "conditions": "0.25 uM", "description": "Effect on DNA breakge as nicked FormII at 0.25 uM with topoisomerase I"}, "[5]": {"target": "T1, DNA topoisomerase 1 (Homo sapiens)", "conditions": "2 uM", "description": "Effect on DNA breakge as nicked FormII at 2 uM without topoisomerase I"}, "[6]": {"target": "T1, DNA topoisomerase 1 (Homo sapiens)", "conditions": "2 uM", "remark": "listed apart in the source", "description": "Effect on stabilization of human topoisomerase I-DNA covalent complex at 2 uM"}}}
{"smiles": "COc1cc([C@H]2OC[C@H]3[C@@H]2CO[C@@H]3c2cc(OC)c(O)c(OC)c2)cc(OC)c1O", "values": [{"measurement": "Effect", "setting": "[1]", "result": 8, "unit": "%"}, {"measurement": "Effect", "setting": "[2]", "result": 15, "unit": "%"}, {"measurement": "Effect", "setting": "[3]", "result": 2, "unit": "%"}]}
{"smiles": "CC1O[C@@H](OC[C@H]2O[C@@H](Oc3c(-c4ccc(O)cc4)oc4cc(O)cc(O)c4c3=O)C(O[C@@H]3O[C@H](C)[C@H](O)C(O)C3O)C(O)[C@H]2O)C(O)[C@@H](O)[C@H]1O", "note": "(some centres undefined)", "values": [{"measurement": "Effect", "setting": "[1]", "result": 31, "unit": "%"}, {"measurement": "Effect", "setting": "[2]", "result": 75, "unit": "%"}, {"measurement": "Effect", "setting": "[3]", "result": 10, "unit": "%"}]}
{"smiles": "CC[C@@]1(O)C(=O)OCc2c1cc1n(c2=O)Cc2cc3ccccc3nc2-1", "values": [{"measurement": "Effect", "setting": "[4]", "result": 84, "unit": "%"}, {"measurement": "Effect", "setting": "[5]", "result": 96, "unit": "%"}, {"measurement": "Effect", "setting": "[6]", "result": 2, "unit": "%"}]}
